Measured values: patent US8119805B2, “Substituted disulfonamide compounds” (Gruenenthal GmbH, priority 2008, dated 2012)
Where a name gives a salt, the structure may show the parent alone.

What was measured:
[1] = target: T1, human B1R receptor (hB1R) (Homo sapiens, UniProt P46663); test: Functional investigation on the bradykinin 1 receptor (B1R), FLIPR Ca2+ assay, hB1R cells; type: cell-based; settings: test substance 10 μM; CHO K1 cells transfected with human B1R gene; Fluo-4 Ca2+ signal; agonist Lys-Des-Arg9-bradykinin at EC80; % of maximum achievable inhibition; read-out: B1R antagonism, human [10 μM] % inhibition
T1 construct: expressed in transfected cells; host or cells: CHO K1 cells
T1 sequence (P46663 1-353): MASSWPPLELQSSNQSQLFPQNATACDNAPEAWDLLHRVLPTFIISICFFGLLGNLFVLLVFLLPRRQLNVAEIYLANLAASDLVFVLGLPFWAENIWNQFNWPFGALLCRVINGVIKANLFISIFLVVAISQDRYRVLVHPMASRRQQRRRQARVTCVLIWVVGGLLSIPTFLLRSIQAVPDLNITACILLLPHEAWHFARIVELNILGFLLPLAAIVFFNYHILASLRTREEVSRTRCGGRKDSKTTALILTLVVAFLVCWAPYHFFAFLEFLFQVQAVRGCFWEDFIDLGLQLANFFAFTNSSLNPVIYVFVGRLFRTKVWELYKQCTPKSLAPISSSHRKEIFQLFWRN
Experimental: (§1) The agonistic or antagonistic action of substances on the bradykinin 1 receptor (B1R) of the human and rat species can be quantified with ectopically expressing cell lines (CHO K1 cells) and with the aid of a Ca^2+-sensitive dyestuff (Fluo-4) in a fluorescent imaging plate reader (FLIPR). The value in % activation is based on the Ca^2+ signal after addition of Lys-Des-[…]-bradykinin (0.5 nM) or Des-[…]-bradykinin (100 nM). Antagonists lead to a suppression of the Ca^2+inflow after addition of the agonist. % inhibition compared with the maximum achievable inhibition is stated. The agonistic or antagonistic action of substances on the bradykinin 1 receptor (B1R) of the human and rat species can be determined with the following assay. In accordance with this assay, the Ca^2+ inflow through the channel is quantified with the aid of a Ca^2+-sensitive dyestuff (type Fluo-4, Molecular Probes Europe BV, Leiden, Holland) in a fluorescent imaging plate reader (FLIPR, Molecular Devices, Sunnyvale, USA). Chinese hamster ovary cells (CHO K1 cells) transfected stably with the human B1R gene (hB1R cells) or the B1R gene of the rat (rB1R cells) are used. For functional studies, these cells are plated out on black 96-well plates with a clear base (BD Biosciences, Heidelberg, Germany or Greiner, Frickenhausen, Germany) in a density of 20,000-35,000 cells/well. The cells are left overnight at 37° C. and 5% CO2 in culture medium (hB1R cells: Nutrient Mixture Ham's F12, Gibco Invitrogen GmbH, Karlsruhe, Germany or DMEM, Sigma-Aldrich, Taufkirchen, Germany; rB1R cells: D-MEM/F12, Gibco Invitrogen GmbH, Karlsruhe, Germany) with 10 vol. % FBS (foetal bovine serum, Gibco Invitrogen GmbH, Karlsruhe, Germany or PAN Biotech GmbH, Aidenbach, Germany). On the following day, the cells are loaded for 60 min at 37° C. with 2.13 μM Fluo-4 (Molecular Probes Europe BV, Leiden Holland) in HBSS buffer (Hank's buffered saline solution, Gibco Invitrogen GmbH, Karlsruhe, Germany) with 2.5 mM probenecid (Sigma-Aldrich, Taufkirchen, Germany) and 10 mM HEPES (Sigma-Aldrich, Taufkirchen, Germany). The plates are then washed 2× with HBSS buffer, and HBSS buffer which additionally contains 0.1% BSA (bovine serum albumin; Sigma-Aldrich, Taufkirchen, Germany), 5.6 mM glucose and 0.05% gelatine (Merck KGaA, Darmstadt, Germany) is added. After a further incubation of 20 minutes at room temperature, the plates are inserted into the FLIPR for the Ca^2+ measurement. Alternatively, the plates are washed with buffer A (15 mM HEPES, 80 mM NaCl, 5 mM KCl, 1.2 mM CaCl2, 0.7 mM MgSO4, 2 g/l glucose, 2.5 mM probenecid), buffer A is added and the plates are loaded with 2.5 μM Fluo-4 and 0.025% Pluronic F127 (Sigma-Aldrich, Taufkirchen, Germany). Thereafter, the cells are washed 2× with buffer A and incubated for 30 minutes at room temperature with buffer A, which additionally contains 0.05% BSA and 0.05% gelatine, and thereafter inserted into the FLIPR for the Ca^2+ measurement. The Ca^2+-dependent fluorescence is measured here before and after addition of substances (λex=488 nm, λem=540 nm). Quantification is by measurement of the highest fluorescence intensity (FC, fluorescence counts) over time. The FLIPR protocol consists of 2 additions of substance. Test substances (10 μM) are first pipetted on to the cells and the Ca^2+ inflow is compared with the control (hB1R: Lys-Des-[…]-bradykinin>=50 nM; rB1R: Des-[…]-bradykinin 10 μM). This gives the result in % activation based on the Ca^2+ signal after addition of Lys-Des-[…]-bradykinin (>=50 nM) or Des-[…]-bradykinin (10 μM). After incubation for 10-20 minutes, Lys-Des-[…]-bradykinin (hB1R) or Des-[…]-bradykinin (rB1R) at the EC80 concentration is applied and the inflow of Ca^2+ is likewise determined. Antagonists lead to a suppression of the Ca^2+ inflow. The percent inhibition compared to the maximum achievable inhibition is calculated. In order to determine the IC50 value, the substances are added in various concentrations. […]

[2] = target: T2, B1R receptor of the rat (rB1R) (Rattus norvegicus, UniProt P97583); test: Functional investigation on the bradykinin 1 receptor (B1R), FLIPR Ca2+ assay, rB1R cells; type: cell-based; settings: test substance 10 μM; CHO K1 cells transfected with rat B1R gene; Fluo-4 Ca2+ signal; agonist Des-Arg9-bradykinin at EC80; % of maximum achievable inhibition; read-out: B1R antagonism, rat [10 μM] % inhibition
T2 construct: expressed in transfected cells; host or cells: CHO K1 cells
T2 sequence (P97583 1-337): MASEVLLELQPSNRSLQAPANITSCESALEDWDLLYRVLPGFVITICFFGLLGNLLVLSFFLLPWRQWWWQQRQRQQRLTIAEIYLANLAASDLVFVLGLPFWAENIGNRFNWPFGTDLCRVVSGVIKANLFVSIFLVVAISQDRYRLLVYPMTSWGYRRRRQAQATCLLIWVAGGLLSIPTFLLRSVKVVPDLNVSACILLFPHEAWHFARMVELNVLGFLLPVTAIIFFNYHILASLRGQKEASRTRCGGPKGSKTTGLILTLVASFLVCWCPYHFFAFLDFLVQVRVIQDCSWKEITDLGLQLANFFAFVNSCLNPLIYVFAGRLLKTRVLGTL
Experimental: as §1

| SMILES | inhibition at 10 µM [1] [%] | inhibition at 10 µM [2] [%] |
| --- | --- | --- |
| CN1CCC(N2CCN(S(=O)(=O)CCC[C@@H]3CCCN3S(=O)(=O)CC(c3ccccc3)c3ccccc3)CC2)CC1 [Example 33, (S)-1-(3-(1-(2,2-Diphenylethylsulfonyl)pyrrolidin-2-yl)propylsulfonyl)-4-(1-methylpiperidin-4-yl)piperazine] | 98 | 36 |
| COc1cc(C)c(S(=O)(=O)N2CCC[C@@H]2CCCS(=O)(=O)N2CCN(C3CCN(C)CC3)CC2)c(C)c1 [Example 34, (R)-1-(3-(1-(4-Methoxy-2,6-dimethylphenylsulfonyl)pyrrolidin-2-yl)propylsulfonyl)-4-(1-methylpiperidin-4-yl)piperazine] | 99 | 96 |
| CN1CCC(N2CCN(S(=O)(=O)CCC[C@@H]3CCCN3S(=O)(=O)c3cccc(C(F)(F)F)c3)CC2)CC1 [Example 35, (S)-1-(1-Methylpiperidin-4-yl)-4-(3-(1-(3-(trifluoromethyl)phenylsulfonyl)pyrrolidin-2-yl)propylsulfonyl)piperazine] | 23 | 91 |
| COc1cc(C)c(S(=O)(=O)N2C[C@@H](F)C[C@H]2CCCS(=O)(=O)N2CCC(Oc3ccncc3)CC2)c(C)c1 [Example 36, 4-(1-(3-((2R,4S)-4-Fluoro-1-(4-methoxy-2,6-dimethylphenylsulfonyl)pyrrolidin-2-yl)propylsulfonyl)piperidin-4-yloxy)pyridine] | 95 | 89 |
| CN1CCC(N2CCN(S(=O)(=O)CC3CCCCN3S(=O)(=O)c3cccc(C(F)(F)F)c3)CC2)CC1 (centres unmarked) [Example 37, 1-(1-Methylpiperidin-4-yl)-4-((1-(3-(trifluoromethyl)phenylsulfonyl)piperidin-2-yl)methylsulfonyl)piperazine] | 53 | 40 |
| Cc1cc(S(=O)(=O)N2CCCCC2CCS(=O)(=O)N2CCN(C3CCN(C)CC3)CC2)c(C)cc1Cl (centres unmarked) [Example 38, 1-(2-(1-(4-Chloro-2,5-dimethylphenylsulfonyl)piperidin-2-yl)ethylsulfonyl)-4-(1-methylpiperidin-4-yl)piperazine dihydrochloride] | 101 | 47 |
| COc1cc(C)c(S(=O)(=O)N2CCCC(CCS(=O)(=O)N3CCC(CCN4CCCC4)CC3)C2)c(C)c1C (centres unmarked) [Example 39, 1-(4-Methoxy-2,3,6-trimethylphenylsulfonyl)-3-(2-(4-(2-(pyrrolidin-1-yl)ethyl)piperidin-1-ylsulfonyl)ethyl)piperidine hydrochloride] | 44 | 27 |
| Cc1cc(C)c(S(=O)(=O)N2CCC[C@@H]2CCCS(=O)(=O)N2CCN(C3CCN(C)CC3)CC2)c(C)c1 [Example 41, (R)-1-(3-(1-(Mesitylsulfonyl)pyrrolidin-2-yl)propylsulfonyl)-4-(1-methylpiperidin-4-yl)piperazine dihydrochloride] | 50 | 7 |
| Cc1cc(C)c(S(=O)(=O)N2CCCC2CCCCS(=O)(=O)N2CCN(C3CCN(C)CC3)CC2)c(C)c1 (centres unmarked) [Example 42, 1-(4-(1-(Mesitylsulfonyl)pyrrolidin-2-yl)butylsulfonyl)-4-(1-methylpiperidin-4-yl)piperazine dihydrochloride] | 50 | 26 |
| Cc1cc(S(=O)(=O)N2CCC(CCS(=O)(=O)N3CCN(Cc4cccc(C#N)c4)CC3)C2)c(C)cc1Cl (centres unmarked) [Example 43, 3-((4-(2-(1-(4-Chloro-2,5-dimethylphenylsulfonyl)pyrrolidin-3-yl)ethylsulfonyl)piperazin-1-yl)methyl)benzonitrile hydrochloride] | 11 | 50 |
| COc1cc(C)c(S(=O)(=O)N2c3ccccc3CC2CCCS(=O)(=O)N2CCC(O)(c3cccnc3)CC2)c(C)c1 (centres unmarked) [Example 44, 1-(3-(1-(4-Methoxy-2,6-dimethylphenylsulfonyl)indolin-2-yl)propylsulfonyl)-4-(pyridin-3-yl)piperidin-4-ol] | 82 | 105 |
| COc1cc(C)c(S(=O)(=O)N2c3ccccc3CC2CCCS(=O)(=O)N2CCC3(CCN(c4ccncc4)CC3)CC2)c(C)c1 (centres unmarked) [Example 45, 1-(4-Methoxy-2,6-dimethylphenylsulfonyl)-2-(3-(9-(pyridin-4-yl)-3,9-diazaspiro[5.5]undecan-3-ylsulfonyl)propyl)indoline] | 98 | 102 |
| Cc1cccc(Cl)c1S(=O)(=O)N1CCC[C@H]1CCCS(=O)(=O)N1CCC(Oc2ccncc2)CC1 [Example 46, (S)-4-(1-(3-(1-(2-Chloro-6-methylphenylsulfonyl)pyrrolidin-2-yl)propylsulfonyl)piperidin-4-yloxy)pyridine] | 80 | 99 |
| COc1cc(C)c(S(=O)(=O)N2CCC[C@H]2CCCS(=O)(=O)N2CCC(Oc3ccncc3)CC2)c(C)c1 [Example 47, (S)-4-(1-(3-(1-(4-Methoxy-2,6-dimethylphenylsulfonyl)pyrrolidin-2-yl)propylsulfonyl)piperidin-4-yloxy)pyridine] | 95 | 95 |
| O=S(=O)(CCC[C@@H]1CCCN1S(=O)(=O)c1ccccc1C(F)(F)F)N1CCC(Oc2ccncc2)CC1 [Example 48, (S)-4-(1-(3-(1-(2-(Trifluoromethyl)phenylsulfonyl)pyrrolidin-2-yl)propylsulfonyl)piperidin-4-yloxy)pyridine] | 81 | 75 |
| O=S(=O)(CCC[C@@H]1CCCN1S(=O)(=O)c1ccc2ccccc2c1)N1CCC(Oc2ccncc2)CC1 [Example 49, (S)-4-(1-(3-(1-(Naphthalen-2-ylsulfonyl)pyrrolidin-2-yl)propylsulfonyl)piperidin-4-yloxy)pyridine] | 30 | 36 |
